Data: ChEMBL document CHEMBL5038669, “Development of the First Covalent Monopolar Spindle Kinase 1 (MPS1/TTK) Inhibitor” (J Med Chem, 2022)
Active and inactive are the calls of the source. The rule behind the calls is not given here.

Tests used:
[1] = target: T1, Dual specificity protein kinase TTK (Homo sapiens) (UniProt P33981); test: Displacement of tracer K9 from NanoLuc-fused MPS1 (unknown origin) expressed in HEK293T cells at 10 fold IC50 preincubated for 2 hrs followed by compound washout by NanoBRET assay; assay type: cell-based
T1 sequence (whole entry): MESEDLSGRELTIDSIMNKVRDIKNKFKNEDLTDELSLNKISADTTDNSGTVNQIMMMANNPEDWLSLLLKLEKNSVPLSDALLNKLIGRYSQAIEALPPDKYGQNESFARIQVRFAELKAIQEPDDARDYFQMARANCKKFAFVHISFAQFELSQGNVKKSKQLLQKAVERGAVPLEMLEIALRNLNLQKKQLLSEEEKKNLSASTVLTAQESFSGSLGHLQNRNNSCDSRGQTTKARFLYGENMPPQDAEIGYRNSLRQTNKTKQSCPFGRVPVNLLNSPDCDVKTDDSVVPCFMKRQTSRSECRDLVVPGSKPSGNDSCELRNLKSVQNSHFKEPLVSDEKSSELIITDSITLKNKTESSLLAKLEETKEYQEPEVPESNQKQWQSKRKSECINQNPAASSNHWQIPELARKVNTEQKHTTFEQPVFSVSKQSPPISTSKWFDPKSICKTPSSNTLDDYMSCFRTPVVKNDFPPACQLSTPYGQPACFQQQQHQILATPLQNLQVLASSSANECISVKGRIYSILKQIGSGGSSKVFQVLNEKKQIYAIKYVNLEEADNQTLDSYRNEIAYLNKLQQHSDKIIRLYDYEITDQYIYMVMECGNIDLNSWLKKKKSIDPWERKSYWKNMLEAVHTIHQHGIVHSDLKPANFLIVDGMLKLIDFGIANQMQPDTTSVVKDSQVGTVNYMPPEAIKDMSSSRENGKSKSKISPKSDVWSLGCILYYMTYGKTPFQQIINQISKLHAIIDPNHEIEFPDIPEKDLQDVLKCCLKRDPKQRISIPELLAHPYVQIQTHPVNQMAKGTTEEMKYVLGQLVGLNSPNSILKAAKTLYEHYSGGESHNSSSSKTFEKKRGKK

[2] = target: T2, Serine/threonine-protein kinase 17B (Homo sapiens) (UniProt O94768); details: dose 10.0 µM
T2 sequence (whole entry): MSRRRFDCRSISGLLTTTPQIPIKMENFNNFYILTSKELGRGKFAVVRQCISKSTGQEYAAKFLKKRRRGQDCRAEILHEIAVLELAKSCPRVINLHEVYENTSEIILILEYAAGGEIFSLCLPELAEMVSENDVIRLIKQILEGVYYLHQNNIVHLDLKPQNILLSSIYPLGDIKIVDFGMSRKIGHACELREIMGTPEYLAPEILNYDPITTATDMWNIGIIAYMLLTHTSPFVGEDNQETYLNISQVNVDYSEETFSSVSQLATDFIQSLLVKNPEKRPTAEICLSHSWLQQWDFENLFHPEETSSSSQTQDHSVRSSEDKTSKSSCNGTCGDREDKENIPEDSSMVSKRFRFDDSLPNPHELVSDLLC

Compound | Activity [1] | ΔTm [2] [°C]
COc1cc(OC2CCN(C)CC2)ccc1Nc1ncc2c(n1)n(C1CCCC1)c(=O)n2C | inactive | 11.5
COc1ccc(Oc2cc(NCCC(F)(F)F)c3ncc(-c4ccc(C(=O)NC5CC5)c(C)c4)n3n2)c(F)c1F |  | 19.1
